Measurements published in patent US6852673B2, “Herbicidal pyridine compounds” (BASF Aktiengesellschaft, priority 1998, dated 2005).

Legend:
Format in all cases: in vivo
[1] = test system: Solanum nigrum (SOLNI); assay: Pre-emergence herbicidal evaluation, black nightshade
Summary of the method: (§1)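 Rating done 2–4 weeks post-treatment in the greenhouse. Compound, in aqueous acetone, was sprayed onto soil surface right after sowing, at rates equivalent to about 0.0125–0.4 kg per hectare, before crop or weed emergence.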

[2] = test system: Alopecurus myosuroides (ALOMY); assay: Post-emergence herbicidal evaluation, black grass; settings: rated 2 to 4 weeks after treatment
Summary of the method: (§2)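 Post-emergence spray; acetone stock diluted in water; dose ≈0.03–0.4 kg/ha per pot; greenhouse, routine care; visual score at 2–4 wk, 0 = untreated-like, 9 = dead.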

[3] = test system: Zea mays (ZEAMX); assay: Post-emergence herbicidal evaluation, maize; settings: rated 2 to 4 weeks after treatment
Summary of the method: as §2

[4] = test system: Alopecurus myosuroides (ALOMY); assay: Pre-emergence herbicidal evaluation, black grass
Summary of the method: as §1

[5] = test system: Solanum nigrum (SOLNI); assay: Post-emergence herbicidal evaluation, black nightshade; settings: rated 2 to 4 weeks after treatment
Summary of the method: as §2

[6] = test system: Matricaria inodora (MATIN); assay: Post-emergence herbicidal evaluation, mayweed; settings: rated 2 to 4 weeks after treatment
Summary of the method: as §2

[7] = test system: Zea mays (ZEAMX); assay: Pre-emergence herbicidal evaluation, maize
Summary of the method: as §1

[8] = test system: Hordeum vulgare (HORVW); assay: Pre-emergence herbicidal evaluation, winter barley
Summary of the method: as §1

[9] = test system: Glycine max (GLXMA); assay: Pre-emergence herbicidal evaluation, soyabeans
Summary of the method: as §1

[10] = test system: Abutilon theophrasti (ABUTH); assay: Post-emergence herbicidal evaluation, velvetleaf; settings: rated 2 to 4 weeks after treatment
Summary of the method: as §2

[11] = test system: Echinochloa grus galli (ECHCG); assay: Post-emergence herbicidal evaluation, barnyard grass; settings: rated 2 to 4 weeks after treatment
Summary of the method: as §2

[12] = test system: Lamium purpureum (LAMPU); assay: Pre-emergence herbicidal evaluation, purple deadnettle
Summary of the method: as §1

[13] = test system: Ambrosia artemiisifolia (AMBEL); assay: Post-emergence herbicidal evaluation, ragweed; settings: rated 2 to 4 weeks after treatment
Summary of the method: as §2

[14] = test system: Oryza sativum (ORYSA); assay: Pre-emergence herbicidal evaluation, rice
Summary of the method: as §1

[15] = test system: Triticum aestivum (TRZAW); assay: Pre-emergence herbicidal evaluation, winter wheat
Summary of the method: as §1

[16] = test system: Echinochloa grus galli (ECHCG); assay: Pre-emergence herbicidal evaluation, barnyard grass
Summary of the method: as §1

[17] = test system: Digitaria sanguinalis (DIGSA); assay: Post-emergence herbicidal evaluation, large crabgrass; settings: rated 2 to 4 weeks after treatment
Summary of the method: as §2

[18] = test system: Glycine max (GLXMA); assay: Post-emergence herbicidal evaluation, soyabeans; settings: rated 2 to 4 weeks after treatment
Summary of the method: as §2

[19] = test system: Setaria viridis (SETVI); assay: Pre-emergence herbicidal evaluation, green foxtail
Summary of the method: as §1

[20] = test system: Lamium purpureum (LAMPU); assay: Post-emergence herbicidal evaluation, purple deadnettle; settings: rated 2 to 4 weeks after treatment
Summary of the method: as §2

[21] = test system: Oryza sativum (ORYSA); assay: Post-emergence herbicidal evaluation, rice; settings: rated 2 to 4 weeks after treatment
Summary of the method: as §2

[22] = test system: Stellaria media (STEME); assay: Pre-emergence herbicidal evaluation, chickweed
Summary of the method: as §1

[23] = test system: Hordeum vulgare (HORVW); assay: Post-emergence herbicidal evaluation, winter barley; settings: rated 2 to 4 weeks after treatment
Summary of the method: as §2

[24] = test system: Triticum aestivum (TRZAW); assay: Post-emergence herbicidal evaluation, winter wheat; settings: rated 2 to 4 weeks after treatment
Summary of the method: as §2

[25] = test system: Ipomoea hederacea (IPOHE); assay: Post-emergence herbicidal evaluation, morning glory; settings: rated 2 to 4 weeks after treatment
Summary of the method: as §2

[26] = test system: Galium aparine (GALAP); assay: Pre-emergence herbicidal evaluation, cleaver
Summary of the method: as §1

For `Cc1cc(OCC=C(Cl)Cl)nc(Oc2cc(C(F)(F)F)nn2C)c1` [Example 12], the SOLNI rating ([1]; dose 0.013 kg/ha) was 5 (5 - Definite injury), the SOLNI rating ([1]; dose 0.025 kg/ha) was 8 (8 - Approaching complete kill) and the SOLNI rating ([1]; dose 0.1 kg/ha) was 8 (8 - Approaching complete kill). The SOLNI rating ([1]; dose 0.4 kg/ha) was 8 (8 - Approaching complete kill), the ALOMY rating ([2]; dose 0.03 kg/ha) was 8 (8 - Approaching complete kill) and the ALOMY rating ([2]; dose 0.1 kg/ha) was 9 (9 - Complete kill). The ALOMY rating ([2]; dose 0.4 kg/ha) was 9 (9 - Complete kill), the ZEAMX rating ([3]; dose 0.03 kg/ha) was 2 (2 - Slight effect) and the ZEAMX rating ([3]; dose 0.1 kg/ha) was 4 (4 - Injury). For the same molecule, the ZEAMX rating ([3]; dose 0.4 kg/ha) was 6 (6 - Herbicidal effect), the ALOMY rating ([4]; dose 0.013 kg/ha) was 3 (3 - Moderate effect) and the ALOMY rating ([4]; dose 0.025 kg/ha) was 8 (8 - Approaching complete kill). For the same molecule, the ALOMY rating ([4]; dose 0.1 kg/ha) was 9 (9 - Complete kill), the ALOMY rating ([4]; dose 0.4 kg/ha) was 9 (9 - Complete kill) and the SOLNI rating ([5]; dose 0.03 kg/ha) was 8 (8 - Approaching complete kill). For the same molecule, the SOLNI rating ([5]; dose 0.1 kg/ha) was 8 (8 - Approaching complete kill), the SOLNI rating ([5]; dose 0.4 kg/ha) was 8 (8 - Approaching complete kill) and the MATIN rating ([6]; dose 0.03 kg/ha) was 8 (8 - Approaching complete kill). For the same molecule, the MATIN rating ([6]; dose 0.1 kg/ha) was 8 (8 - Approaching complete kill), the MATIN rating ([6]; dose 0.4 kg/ha) was 8 (8 - Approaching complete kill) and the ZEAMX rating ([7]; dose 0.013 kg/ha) was 0 (0 - No effect). For the same molecule, the ZEAMX rating ([7]; dose 0.025 kg/ha) was 2 (2 - Slight effect), the ZEAMX rating ([7]; dose 0.1 kg/ha) was 3 (3 - Moderate effect) and the ZEAMX rating ([7]; dose 0.4 kg/ha) was 5 (5 - Definite injury). For the same molecule, the HORVW rating ([8]; dose 0.013 kg/ha) was 3 (3 - Moderate effect), the HORVW rating ([8]; dose 0.025 kg/ha) was 4 (4 - Injury) and the HORVW rating ([8]; dose 0.1 kg/ha) was 5 (5 - Definite injury). For the same molecule, the HORVW rating ([8]; dose 0.4 kg/ha) was 8 (8 - Approaching complete kill), the GLXMA rating ([9]; dose 0.013 kg/ha) was 1 (1 - Trace effect) and the GLXMA rating ([9]; dose 0.025 kg/ha) was 2 (2 - Slight effect). The GLXMA rating ([9]; dose 0.1 kg/ha) was 3 (3 - Moderate effect), the GLXMA rating ([9]; dose 0.4 kg/ha) was 4 (4 - Injury) and the ABUTH rating ([10]; dose 0.03 kg/ha) was 8 (8 - Approaching complete kill). For the same molecule, the ABUTH rating ([10]; dose 0.1 kg/ha) was 9 (9 - Complete kill), the ABUTH rating ([10]; dose 0.4 kg/ha) was 9 (9 - Complete kill) and the ECHCG rating ([11]; dose 0.03 kg/ha) was 9 (9 - Complete kill). For the same molecule, the ECHCG rating ([11]; dose 0.1 kg/ha) was 9 (9 - Complete kill), the ECHCG rating ([11]; dose 0.4 kg/ha) was 9 (9 - Complete kill) and the LAMPU rating ([12]; dose 0.013 kg/ha) was 8 (8 - Approaching complete kill). The LAMPU rating ([12]; dose 0.025 kg/ha) was 9 (9 - Complete kill), the LAMPU rating ([12]; dose 0.1 kg/ha) was 9 (9 - Complete kill) and the LAMPU rating ([12]; dose 0.4 kg/ha) was 9 (9 - Complete kill). The AMBEL rating ([13]; dose 0.03 kg/ha) was 5 (5 - Definite injury), the AMBEL rating ([13]; dose 0.1 kg/ha) was 6 (6 - Herbicidal effect) and the AMBEL rating ([13]; dose 0.4 kg/ha) was 7 (7 - Good herbicidal effect). For the same molecule, the ORYSA rating ([14]; dose 0.013 kg/ha) was 0 (0 - No effect), the ORYSA rating ([14]; dose 0.025 kg/ha) was 0 (0 - No effect) and the ORYSA rating ([14]; dose 0.1 kg/ha) was 1 (1 - Trace effect). For the same molecule, the ORYSA rating ([14]; dose 0.4 kg/ha) was 3 (3 - Moderate effect), the TRZAW rating ([15]; dose 0.013 kg/ha) was 1 (1 - Trace effect) and the TRZAW rating ([15]; dose 0.025 kg/ha) was 2 (2 - Slight effect). The TRZAW rating ([15]; dose 0.1 kg/ha) was 3 (3 - Moderate effect), the TRZAW rating ([15]; dose 0.4 kg/ha) was 6 (6 - Herbicidal effect) and the ECHCG rating ([16]; dose 0.013 kg/ha) was 3 (3 - Moderate effect). The ECHCG rating ([16]; dose 0.025 kg/ha) was 5 (5 - Definite injury), the ECHCG rating ([16]; dose 0.1 kg/ha) was 8 (8 - Approaching complete kill) and the ECHCG rating ([16]; dose 0.4 kg/ha) was 9 (9 - Complete kill). For the same molecule, the DIGSA rating ([17]; dose 0.03 kg/ha) was 8 (8 - Approaching complete kill), the DIGSA rating ([17]; dose 0.1 kg/ha) was 9 (9 - Complete kill) and the DIGSA rating ([17]; dose 0.4 kg/ha) was 9 (9 - Complete kill). For the same molecule, the GLXMA rating ([18]; dose 0.03 kg/ha) was 5 (5 - Definite injury), the GLXMA rating ([18]; dose 0.1 kg/ha) was 8 (8 - Approaching complete kill) and the GLXMA rating ([18]; dose 0.4 kg/ha) was 8 (8 - Approaching complete kill). For the same molecule, the SETVI rating ([19]; dose 0.013 kg/ha) was 5 (5 - Definite injury), the SETVI rating ([19]; dose 0.025 kg/ha) was 9 (9 - Complete kill) and the SETVI rating ([19]; dose 0.1 kg/ha) was 9 (9 - Complete kill). For the same molecule, the SETVI rating ([19]; dose 0.4 kg/ha) was 9 (9 - Complete kill), the LAMPU rating ([20]; dose 0.03 kg/ha) was 8 (8 - Approaching complete kill) and the LAMPU rating ([20]; dose 0.1 kg/ha) was 8 (8 - Approaching complete kill). For the same molecule, the LAMPU rating ([20]; dose 0.4 kg/ha) was 8 (8 - Approaching complete kill), the ORYSA rating ([21]; dose 0.03 kg/ha) was 2 (2 - Slight effect) and the ORYSA rating ([21]; dose 0.1 kg/ha) was 3 (3 - Moderate effect). For the same molecule, the ORYSA rating ([21]; dose 0.4 kg/ha) was 4 (4 - Injury), the STEME rating ([22]; dose 0.013 kg/ha) was 6 (6 - Herbicidal effect) and the STEME rating ([22]; dose 0.025 kg/ha) was 8 (8 - Approaching complete kill). The STEME rating ([22]; dose 0.1 kg/ha) was 9 (9 - Complete kill), the STEME rating ([22]; dose 0.4 kg/ha) was 9 (9 - Complete kill) and the HORVW rating ([23]; dose 0.03 kg/ha) was 3 (3 - Moderate effect). The HORVW rating ([23]; dose 0.1 kg/ha) was 5 (5 - Definite injury), the HORVW rating ([23]; dose 0.4 kg/ha) was 6 (6 - Herbicidal effect) and the TRZAW rating ([24]; dose 0.03 kg/ha) was 3 (3 - Moderate effect). For the same molecule, the TRZAW rating ([24]; dose 0.1 kg/ha) was 3 (3 - Moderate effect), the TRZAW rating ([24]; dose 0.4 kg/ha) was 5 (5 - Definite injury) and the IPOHE rating ([25]; dose 0.03 kg/ha) was 9 (9 - Complete kill). The IPOHE rating ([25]; dose 0.1 kg/ha) was 9 (9 - Complete kill), the IPOHE rating ([25]; dose 0.4 kg/ha) was 9 (9 - Complete kill) and the GALAP rating ([26]; dose 0.013 kg/ha) was 1 (1 - Trace effect). The GALAP rating ([26]; dose 0.025 kg/ha) was 4 (4 - Injury), the GALAP rating ([26]; dose 0.1 kg/ha) was 8 (8 - Approaching complete kill) and the GALAP rating ([26]; dose 0.4 kg/ha) was 9 (9 - Complete kill).
